From a melting point compilation (Tetko et al.; mined from patent text by program, amines drawn as free bases though some values may be those of a salt)

Work on `CCC(CC)C(NS(=O)(=O)c1cc(Cl)c(Cl)s1)c1ccnn1-c1ccccc1` (stereo unspecified) yielded a melting point of 116 to 120 °C.
Work on `COc1cc(OC)cc(-c2ncoc2-c2ccc(OC(F)F)c(N)c2)c1` yielded a melting point of 105 °C.
Work on `CC(C)(CO)NC(=S)NC(=O)c1ccccc1` yielded a melting point of 116 to 118 °C.
`O=C1Nc2ccc(F)cc2C1c1ncnc2nn(C3CCCC3)cc12` (stereo unspecified) gave a melting point of 256 to 260 °C.
In the case of `COc1ccccc1-n1c(=O)[nH]c2c(C(N)=O)nc(-c3cccc(N)c3)nc21`, the melting point is reported as 284 to 285 °C.
In the case of `CCC(OC(C)=O)c1ccc(Cl)c2nc3n(c12)CCCN3c1ncc(Cl)cc1Cl` (stereo unspecified), the melting point is reported as 157 to 159 °C.
`CC(C)(OCc1cc(-c2ccc(Cl)cc2)no1)C(=O)N1CCCCC1` showed a melting point of 239 to 242 °C.
In the case of `COc1cc(OC)cc(C(NCC(=O)Nc2c(C(C)C)cccc2C(C)C)c2ccccc2C)c1` (stereo unspecified), the melting point is reported as 138 to 139 °C.
Molecule `CCOC(=O)C(C)=Cc1ccc([N+](=O)[O-])cc1` has a melting point of 75 °C.
In the case of `NCCC(O)(c1ccccc1)c1ccccc1`, the melting point is reported as 134 to 136 °C.
`CC(=O)c1cccc(NC(=O)NCC(=O)N(CC(=O)N2CCCc3ccccc32)c2ccccc2)c1` gave a melting point of 130 °C.
With `CCCOc1cc([N+](=O)[O-])ccc1Cl` the melting point was 52 to 53 °C.
With `CCCC(=O)n1nc(-c2ccncc2)nc1-c1ccncc1` the melting point was 116 to 118 °C.
`CCOC(=O)Cc1nn(Cc2nc3cc(Br)ccc3s2)c(=O)c2ccccc12` gave a melting point of 160 to 161 °C.
Work on `CC(C)(C)c1cc(CCCO)cc(C(C)(C)C)c1O` yielded a melting point of 67.5 to 69 °C.
`COc1ccc(OC)c(CNC(=O)n2cc(F)c(=O)[nH]c2=O)c1` showed a melting point of 185 °C.
Molecule `CNC(=O)C(=NOC)c1c(F)cccc1COc1ccccc1C` has a melting point of 93 °C.
With `O=C(O)C=Cc1cccc(Sc2c[nH]c3ccccc23)c1` the melting point was 165 to 167 °C.
With `COc1ccc2c3c([nH]c2c1[N+](=O)[O-])C(=O)CC3` the melting point was 228 °C.
`O=C1CN(c2ccc(Cl)cc2)C(=O)N1C(=O)c1c(Cl)cccc1Cl` showed a melting point of 176 to 180 °C.
In the case of `Nc1cc(-n2cc(C(=O)O)c(=O)c3cc(F)c(NCCO)c(Cl)c32)c(F)cc1F`, the melting point is reported as 215 to 219 °C.
With `COc1ccc(Cl)cc1C(CCO)c1ccccc1` (stereo unspecified) the melting point was 80 °C.
`COc1ccc(COC(=O)Nc2cncc(O)c2CCCOc2cccnc2Oc2cccc(Cl)c2)cc1` showed a melting point of 150 °C.
With `O=c1[nH][nH]c(C(F)(F)F)c1Cc1ccc(Br)cc1` the melting point was 135 to 136 °C.
Work on `O=C1N[C@@H](C=Cc2ccccc2)[C@H]1O` yielded a melting point of 143 to 144 °C.
With `CC(C)(C)OC(=O)Nc1ccc(OC2CN(C(c3ccccc3)c3ccccc3)C2)cc1` the melting point was 149 to 151 °C.
Work on `Cc1ccc(-n2c(-c3ccc(C#C[Si](C)(C)C)cc3)ccc2-c2ccc(C#C[Si](C)(C)C)cc2)cc1` yielded a melting point of 223 to 224 °C.
In the case of `CCCCOC(=O)Cc1nc(-c2ccc(Cl)cc2)oc1-c1ccsc1`, the melting point is reported as 79 to 81 °C.
For `CN1CCCCCC1=NC(=O)Nc1c(Cl)cccc1Cl`, the melting point was 143 to 144 °C.
With `C=C(C)C=COCC1CCn2c(nc3ccccc32)S1` (stereo unspecified) the melting point was 56 to 60 °C.
Work on `COCC(=S)Nc1c(Cl)c(Cl)cc2nc(OC)c(OC)nc12` yielded a melting point of 198 to 200 °C.
`CCCCCCCCCCCCCCCCCCCCCCC(NC(C)=O)(C(=O)OCC)C(=O)OCC` gave a melting point of 79 to 80 °C.
In the case of `COc1cc(CN2CCN(C(=O)c3ccc4c(c3)C(=O)c3ccccc3-4)CC2)cc(OC)c1OC`, the melting point is reported as 166 to 168 °C.
In the case of `CC(=O)Oc1ccc2c(c1)C(C(Cl)(Cl)Cl)OC(C(Cl)(Cl)Cl)O2` (stereo unspecified), the melting point is reported as 142 to 144 °C.
With `C[C@@H]1c2ccccc2-c2ccc(F)cc2N1C(=O)c1ccc(O)cc1O` the melting point was 182 to 184 °C.
`O=C(O)/C(=N/O)c1ccc(OCCOc2ccc3ccccc3c2)s1` gave a melting point of 138 to 140 °C.
In the case of `CC(c1ccncc1F)C(O)(Cn1cncn1)c1ccc(F)cc1F` (stereo unspecified), the melting point is reported as 188 to 189 °C.
`O=C(CCc1oc(-n2ccnc2)nc1-c1ccc(Cl)cc1)NCCCl` gave a melting point of 130 to 131 °C.
`COc1ccc(C(=O)Nc2c(Cl)cncc2Cl)c2[nH]c(C(F)(F)F)nc12` gave a melting point of 300 to 301 °C.
`COC(=O)c1cc(-c2ccc(OC)cc2)nn(CCC#N)c1=O` gave a melting point of 141 to 143 °C.
`CCCCCCCCCCOc1ccc(-c2ccc(C#CCCC(C)O)cc2)cc1` (stereo unspecified) showed a melting point of 97 to 99 °C.
With `c1ccc2c(c1)Cc1ccccc1N1CCCN=C21` the melting point was 139 to 141 °C.
`CS(=O)(=O)NC1Cc2ccc(C3=NNC(=O)CC3)cc2C1` (stereo unspecified) showed a melting point of 218 to 220 °C.
For `Cc1cc(-n2ccc(=O)[nH]c2=O)cc(Cl)c1Sc1ccc(Cl)cc1`, the melting point was 150 to 160 °C.
For `Cn1cc(C(=O)NCc2ccc(Cl)cc2)c(=O)c2cc(CN3CCSCC3)ccc21`, the melting point was 215 to 219 °C.
Molecule `Cc1cn(C2CC(O[Si](c3ccccc3)(c3ccccc3)C(C)(C)C)C(CI)O2)c(=O)[nH]c1=O` (stereo unspecified) has a melting point of 142 °C.
In the case of `COc1cccc(-c2cccc3c2S(=O)(=O)NC(C2CCCCC2)N3)c1` (stereo unspecified), the melting point is reported as 108 to 115 °C.
Work on `Cc1cc(C)cc(COC2CCC(N)(c3ccccc3)C(OCc3cc(C)cc(C)c3)C2)c1` (stereo unspecified) yielded a melting point of 103 to 105 °C.
For `O=C(Nc1cccc(S(=O)(=O)CCO)c1)c1cnn2c(C(F)F)cc(-c3ccc(C(F)(F)F)cc3)nc12`, the melting point was 205 °C.
`CCOC(=O)c1[nH]c2cc(Cl)cc(Cl)c2c1I` gave a melting point of 218 to 220 °C.
`O=C(O)CN(CC(=O)O)c1nc(N(CC(=O)O)CC(=O)O)nc(N(CC(=O)O)CC(=O)O)n1` showed a melting point of 246 to 249 °C.
Work on `OCc1nn(-c2ccc(Br)cc2)c2c1CCCC2` yielded a melting point of 126 to 127 °C.
With `N#CCC12CC(c3ccccc31)c1ccccc12` the melting point was 130 to 131 °C.
Molecule `Cc1coc(NC(=S)Nc2ccc(Cl)cc2C)n1` has a melting point of 214 °C.
In the case of `Fc1cccc2c(Nc3ccncc3)noc12`, the melting point is reported as 234 to 236 °C.
In the case of `O=[N+]([O-])c1ccc(C(Cl)=NNc2ccccc2)cc1`, the melting point is reported as 157 to 158 °C.
Molecule `CCOc1c(OC)cccc1C(=O)Nc1ccc(C(=O)OC)cc1C(=O)OC` has a melting point of 113 to 115 °C.
Molecule `CCNc1nc2ccc(CCc3nc4cc(C)ccn4c3C)cc2s1` has a melting point of 165 to 166 °C.
`CCCCCCCCCCCC#Cc1ccccc1C=CP(=O)(O)O` showed a melting point of 82 to 83 °C.
Molecule `COC(=O)C(c1cc2c(cc1Cl)OCO2)c1cn(C)c2cc(Br)ccc12` (stereo unspecified) has a melting point of 183 to 185 °C.
Work on `Cn1ccc(C=C[N+](=O)[O-])c1` yielded a melting point of 90 to 92 °C.
`O=C1Nc2ccc(C(F)(F)F)cc2C1c1ncnc2c1cnn2C1CCCC1` (stereo unspecified) gave a melting point of over 300 °C.
`COC(=O)C(C)CNc1nc2ccccc2o1` (stereo unspecified) gave a melting point of 89 to 90 °C.
`CN1CC(CO)C=C2c3cccc4c3c(cn4C(C)(C)C)CC21` (stereo unspecified) showed a melting point of 181 to 183 °C.
For `Cc1oc(-c2ccccc2)nc1CCOc1ccc(C[C@H](NC(=O)C=Cc2ccc(F)cc2F)C(=O)O)cc1Br`, the melting point was 221 to 223 °C.
With `O=C(CCCCOc1ccccc1O)C(F)(F)F` the melting point was 51 to 52 °C.
In the case of `CC(C)CNC(=O)c1ccc(C2(F)CC2c2ccc(Br)c(Br)c2)cc1` (stereo unspecified), the melting point is reported as 132 °C.
In the case of `O=c1[nH]c2ccc(F)cc2c(=O)n1-c1ccc(Cl)cc1Cl`, the melting point is reported as 313 to 314 °C.
In the case of `COc1nn(-c2ccc(C=O)cc2)nc1Cl`, the melting point is reported as 147 to 148 °C.
For `COC(=O)c1cc(C(=O)c2ccc(OC)c(C(=O)OC)c2)ccc1OC`, the melting point was 142 to 144 °C.
Work on `CCc1cc(NC(=O)c2ccc(OC)c(OC)c2)ccc1C(C)(C)CNC(C)=O` yielded a melting point of 203 to 206 °C.
In the case of `O=CC1(c2ccc(Cl)cc2)CC1`, the melting point is reported as 38 to 41 °C.
Work on `CCc1cc2c(s1)-n1c(C)nnc1C(CCC(=O)O)N=C2c1ccc(Cl)cc1` (stereo unspecified) yielded a melting point of 210 to 212 °C.
Molecule `N#Cc1c(Cl)c(F)cc2c(=O)c(C(=O)O)cn(C3CC3)c12` has a melting point of 281 to 282 °C.
`COC(=O)c1c(Cl)cc(Cl)cc1NC(=O)CSc1ccccc1OC` gave a melting point of 93 to 94 °C.
`CC(C)c1cccc(C(C)C)c1NC(=O)Nc1c(-c2cccc(O)c2)c2cccnc2n(C)c1=O` gave a melting point of 152 to 155 °C.
With `COc1ccc(-c2ccc3c(C(=O)N(C)C)c(OC)ccc3c2)cc1` the melting point was 187 to 188 °C.
`NC(N)=NC(=O)Cn1c(Cl)c(Cl)c(Cl)c1Cl` gave a melting point of 215 to 217 °C.
In the case of `CC(C)SC1CCC(=O)N1` (stereo unspecified), the melting point is reported as 77 to 79 °C.
For `C#CC(C)(C)c1cc(NC(=O)NC)no1`, the melting point was 99 to 100 °C.
Molecule `CCOC(=O)C1=C(N=CN(C)C)NC(C)=C(C(=O)OC)C1c1ccccc1Cl` (stereo unspecified) has a melting point of 137 °C.
Work on `N[C@@H]1CN2C(=O)N(c3cc(Cl)nc(Cl)c3)C(=O)[C@@]2(Cc2ccc(OC(F)(F)F)cc2)C1` yielded a melting point of 151 °C.
`NC(=O)c1ccc2[nH]cc(CCCCN3CC=C(c4ccccc4)CC3)c2c1` showed a melting point of 200 to 205 °C.
`CNC(=O)C1=CC2(CCOCC2)Oc2ccc([N+](=O)[O-])cc21` showed a melting point of 183 to 184 °C.
With `Cn1cncc1C(O)(c1ccc(Cl)cc1)c1ccc2c(c1)c(-c1cccs1)cc(=O)n2C` (stereo unspecified) the melting point was over 260 °C.
Work on `C=CCOc1cc(O)c(C=NO)c(Cl)c1` yielded a melting point of 65 to 66 °C.
In the case of `N#COc1ccc(OC#N)cc1`, the melting point is reported as 117 to 119 °C.
`O=C(CCCCC(=O)NCC1Cc2c1ccc(OCc1ccccc1)c2OCc1ccccc1)NCCc1ccccc1` (stereo unspecified) showed a melting point of 152 to 155 °C.
`C=CCOc1ccc(C(=O)CC(C#N)c2ccc(OC)cc2OC)cc1` (stereo unspecified) showed a melting point of 112 to 113 °C.
Work on `Cn1cc(Br)cc(N)c1=O` yielded a melting point of 104 to 105 °C.
For `CCOC(=O)C(=O)Nc1ccc(S(N)(=O)=O)cc1[N+](=O)[O-]`, the melting point was 193 to 195 °C.
With `CCCCNc1ccc(-c2nc(C(=O)Nc3nccs3)c(-c3cccc(OC)c3)[nH]2)cc1` the melting point was 228 to 231 °C.
Molecule `CC1OC(n2cc(F)c(NC(=O)c3ccccc3)nc2=O)C(OC(=O)c2ccccc2)C1OC(=O)c1ccccc1` (stereo unspecified) has a melting point of 158 to 160 °C.
`CCCCCCCCCCCCCCCCCCC1CNCCNCCNCCNCCN1` (stereo unspecified) gave a melting point of 99 to 100 °C.
In the case of `COc1ccc(-c2sc3cc(OC)ccc3c2C(=O)c2ccc(O)cc2)cc1`, the melting point is reported as 114 to 116 °C.
`COc1ccc(F)c2c1C(=O)CC2` gave a melting point of 118 to 120 °C.
`COc1ccccc1Oc1c(Cl)ncnc1Cl` gave a melting point of 79 to 80 °C.
Work on `CC1(C)SCN(CCCCN2CCN(c3n[nH]c4cc(F)ccc34)CC2)C1=O` yielded a melting point of 123 to 125 °C.
For `CCOCCOCCOCCOc1cc(OCCCCCCCCCCCCOc2ccccc2)cc(N(CC(=O)OC)CC(=O)OC)c1`, the melting point was under 24 °C.
For `CCOC(=O)COc1cc(C)nc2c(OCc3c(Cl)ccc(N(C)C(=O)CNC(=O)C=Cc4ccc(C(=O)NC)cc4)c3Cl)cccc12`, the melting point was 134 to 147 °C.
For `CC(Oc1ccc(Oc2ccc3cc(Cl)ccc3n2)cc1)C(=O)Nc1ccc(C(F)(F)F)cc1` (stereo unspecified), the melting point was 142 to 146 °C.
